The text below walks through data of PMC10615251 (Biochemistry, 2023).

Each structure is given as a SMILES string.

Experiment [1] has as its system T1, UDP-α-D-glucose 6-dehydrogenase (HS:15.18).
T1 construct: gene HS15.18
Conditions: read-out: KNAD (apparent); 1.0 mM UDP-D-glucose, 50 mM triethanolamine pH 8.7, 25 °C.

Experiment [2] relates to T2, UDP-α-D-glucuronate 6-decarboxylase (HS:15.19).
T2 construct: gene HS15.19
Briefly: anion exchange chromatography of UDP-xylose formed, […] nm. Format: biochemical, Campylobacter jejuni. Conditions: 50 mM phosphate pH 6.5.

Experiment [3] deals with T3, UDP-α-D-xylose 4-epimerase (HS:15.17).
T3 construct: gene HS15.17
The following applies: read-out: KUDP-xyl (apparent); 50 mM HEPES/KOH pH 8.0, 25 °C.

Turning to `NC(=O)c1ccc[n+]([C@@H]2O[C@H](COP(=O)(O)OP(=O)(O)OC[C@H]3O[C@@H](n4cnc5c(N)ncnc54)[C@H](O)[C@@H]3O)[C@@H](O)[C@H]2O)c1` [NAD^+], in experiment [1], the Km amounted to 120 ± 10 µM. Moreover, the “Ka (activation constant, concentration at 1⁄2 saturation)” value in experiment [2] (2.5 mM UDP-D-glucuronate) was determined as 17 ± 5 µM. For the compound `O=C(O)[C@H]1O[C@H](OP(=O)(O)OP(=O)(O)OC[C@H]2O[C@@H](n3ccc(=O)[nH]c3=O)[C@H](O)[C@@H]2O)[C@H](O)[C@@H](O)[C@@H]1O` [compound 4, UDP-α-D-glucuronate], in experiment [2] (read-out: KUDP-glc (apparent), 0.30 mM NAD+), the Km is 250 ± 30 µM. On to `O=c1ccn([C@@H]2O[C@H](COP(=O)(O)OP(=O)(O)O[C@H]3OC[C@@H](O)[C@H](O)[C@H]3O)[C@@H](O)[C@H]2O)c(=O)[nH]1` [compound 5, UDP-α-D-xylose], for which the Km in experiment [3] was 125 ± 13 µM.
